This passage reports IC50 results from publication PMC3686551 (Tuberculosis (Edinburgh, Scotland), 2013).

This assay concerns the target Mtb FtsZ (Mycobacterium tuberculosis, UniProt P9WN95). The assay can be described thus: FtsZ polymerization inhibition. Type of assay: biochemical.

Sequence of Mtb FtsZ (P9WN95 whole entry): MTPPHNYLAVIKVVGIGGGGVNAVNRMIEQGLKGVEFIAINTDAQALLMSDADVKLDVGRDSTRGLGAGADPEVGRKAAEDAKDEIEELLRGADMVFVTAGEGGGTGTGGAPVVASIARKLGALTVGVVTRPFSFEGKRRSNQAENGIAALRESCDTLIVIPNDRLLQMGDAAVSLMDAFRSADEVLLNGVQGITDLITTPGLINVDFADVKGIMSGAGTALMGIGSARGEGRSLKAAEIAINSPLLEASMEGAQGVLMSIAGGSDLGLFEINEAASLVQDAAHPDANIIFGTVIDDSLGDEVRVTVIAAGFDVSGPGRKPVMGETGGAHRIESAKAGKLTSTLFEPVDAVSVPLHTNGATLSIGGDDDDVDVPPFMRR

The compound `CCCOc1ccc(N(C)c2cc(C)nc3ccc(Cl)cc23)cc1` [compound 3] returned an IC50 above 100 µM.

A word on the IC50: it is the concentration needed to halve the response being measured.
